Measured values taken from PMC11802874, “The hypolipidemic effect of MI-883, the combined CAR agonist/ PXR antagonist, in diet-induced hypercholesterolemia model” (Nature Communications, 2025).
“And” between values parts separate entries of the source, which are not always exact repeats. Identical values can stand only once. Like-named read-outs stand apart in the source and are kept apart here.

How the values were obtained:
CAR-LBD = target: T1, CAR-LBD (Homo sapiens, UniProt Q14994); assay: MARCoNI CAR-LBD coregulator interaction array; format: biochemical; conditions: 100 μM
T1 construct: HIS-tagged CAR-LBD (ThermoFisher Sciences, Cat. No PV4836); purchased ThermoFisher PV4836
Description: The reaction was performed in a fully automated microarray processing and fluorescent imaging platform (PamStation12) at 20 °C for 80 cycles (two cycles per minute). After removal of the unbound CAR-LBD receptor by washing each array with 25 µl Tris-buffered Saline (TBS) buffer, fluorescent images of the PamChip microarrays were obtained using the PamStation12, and then were analyzed for quantification of CAR binding using BioNavigator software (PamGene International B.V.). For data and statistical analysis, BioNavigator was used.
Modulation index (MI) is the log10-transformed relative binding value, which is calculated by the compound’s binding value, relative to the vehicle control (DMSO) binding value.

[1] = tested on: PXR-responsive CYP3A4(pER6)-luc construct; assay: CYP3A4(pER6)-luc luciferase reporter assay in HepG2 cells
HepaRG KO CAR cells = assay: RT-qPCR mRNA expression in HepaRG KO CAR cells; format: cell-based, human
Description: HepaRG cells from Biopredic (Rennes, France) were cultivated and differentiated on the 12-well plates. […] Several batches of HepaRG KO CAR (CAR Knockout HepaRG™ Cells, MTOX1012-1VL, RRID:CVCL_B6AA) and PXR Knockout HepaRG™ Cells, MTOX1011-1VL, RRID:CVCL_B6AS) cells have been obtained from Sigma-Aldrich/Merck (Darmstadt, Germany) and cultivated according to the provider’s protocols. […] Experiments with HepaRG KO PXR and HepaRG KO CAR cells have been performed in duplicates at least in two independent experiments.
(§1) RT-qPCR was used to examine gene expression in 2D and 3D PHH, HepaRG cells, or in mouse liver or intestine (ileum) samples as we have described before[60]–[62].
All qRT-qPCR experiments including Trizol reagent (Life Technologies) total RNA isolation, reverse-transcription using a random hexaprimer, and the MMLV Reverse Transcriptase Kit (ThermoFisher Scientific) we have described before^19. qPCR was performed using TaqMan Fast Advanced Master Mix with TaqMan probes (ThermoFisher Scientific). […] The delta-delta method was used for gene expression quantification normalized to at least two reference genes. Three technical replicates were used for each reaction considering the MIQE guidelines. Data are presented as fold induction to vehicle-treated cells/animals.

[2] = tested on: primary human hepatocytes (PHH); assay: RT-qPCR mRNA expression in 2D primary human hepatocytes; conditions: for CYP2B6 mRNA, RT-qPCR, PHH (Fig. 1g), replicates: ctrl = 1
Description: The cells were cultivated as 2D monolayers according to the manufacturer’s protocol.
as §1

PPARα = PPARα (Homo sapiens, UniProt Q07869); assay: Luciferase reporter gene assay PPARα, HepG2
Description: The luciferase reporter gene assays for FXR, LXRα, LXRβ, THα, GRα, PPARα, PPARδ/β, PPARγ, AhR, VD, ERα, ERβ and mouse Car are described in our recent paper[19]
(§2) Gal4-LBD constructs of tested nuclear receptors have been used together with pGL4.31[luc2P/GAL4UAS/Hygro] luciferase reporter construct and pRL-TK Renilla expression vector (both from Promega, Hercules, USA) in HepG2 cells transfected with Lipofectamine 2000 or 3000 reagents. For GRα and FXR receptors, full-length expression vectors have been used with pGRE-luc or pFXRE-luc luciferase constructs. For the aryl hydrocarbon receptor (AhR), p1A1-luc construct was used with only pRL-TK vector for transfection normalization. A dual reporter assay (Promega, Hercules, USA) was used to analyze both firefly and Renilla luciferase activities.
(§3) Gal4-LBD constructs of tested nuclear receptors have been used together with pGL5-luc luciferase reporter construct and pRL-TK Renilla expression vector in HepG2 cells transfected with Lipofectamine 2000 or 3000 reagents. For GRα and FXR receptors, full-length expression vectors have been used with pGRE-luc or pFXRE-luc luciferase constructs. For the aryl hydrocarbon receptor (AhR), p1A1-luc construct was used with only pRL-TK vector for transfection normalization. […] Bars represent means±S.D. (n=3).

human PXR = target: T2, human PXR (Homo sapiens, UniProt O75469); assay: PXR luciferase reporter gene assay (CYP3A4-luc) in HepG2 cells; format: cell-based; design: host or cells: HepG2
T2 sequence (O75469 1-434): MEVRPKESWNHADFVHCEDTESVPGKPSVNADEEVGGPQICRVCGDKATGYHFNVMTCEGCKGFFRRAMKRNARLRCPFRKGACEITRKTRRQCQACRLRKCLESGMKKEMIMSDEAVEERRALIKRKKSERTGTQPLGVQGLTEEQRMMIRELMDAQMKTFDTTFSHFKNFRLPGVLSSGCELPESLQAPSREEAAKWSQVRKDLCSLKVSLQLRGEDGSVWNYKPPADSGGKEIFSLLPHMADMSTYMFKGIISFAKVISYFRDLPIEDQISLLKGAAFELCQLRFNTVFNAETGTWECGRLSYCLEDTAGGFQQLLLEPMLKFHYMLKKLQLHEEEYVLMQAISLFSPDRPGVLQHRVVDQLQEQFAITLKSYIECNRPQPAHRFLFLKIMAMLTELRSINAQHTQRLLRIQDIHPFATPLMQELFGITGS
Description: The half maximal effective concentration (EC50) to activate CAR or inhibit PXR (IC50) in the assays was calculated from at least eight points of the dose-response curves using the GraphPad Prism software.

[3] = tested on: humanized PXR-CAR-CYP3A4/3A7 mice; assay: Glucose homeostasis: IPGTT, IPITT, glycemia, insulin (HFD study); format: in vivo, mouse; design: insulinemia: unit not given here
Description: Intraperitoneal glucose tolerance test (IPGTT) and Intraperitoneal Insulin Tolerance Test (IPITT) assays were performed one week before the end of the HFD study. For IPGTT, mice fasted for 18 h were intraperitoneally injected with 20% D-glucose solution (2 g/kg BW). Blood was sampled before the injection and 15, 30, 60, and 120 min after. For the IPITT assay, mice fasted for 4 h were administered with 0.75 IU insulin/kg BW. Blood was sampled before the injection and 15, 30, 45, 60, and 90 min after.

PXR/NCOA1 = target: T3, PXR/NCOA1 (Homo sapiens, UniProt O75469); assay: Mammalian two-hybrid PXR/coactivator NCOA1 recruitment, HepG2; format: cell-based; design: key: firefly/Metridia luciferase activity ratio (normalized)
T3 construct: PXR-LBD (residues 108–434); expressed in transfected cells; host or cells: HepG2
T3 sequence (O75469 108-434): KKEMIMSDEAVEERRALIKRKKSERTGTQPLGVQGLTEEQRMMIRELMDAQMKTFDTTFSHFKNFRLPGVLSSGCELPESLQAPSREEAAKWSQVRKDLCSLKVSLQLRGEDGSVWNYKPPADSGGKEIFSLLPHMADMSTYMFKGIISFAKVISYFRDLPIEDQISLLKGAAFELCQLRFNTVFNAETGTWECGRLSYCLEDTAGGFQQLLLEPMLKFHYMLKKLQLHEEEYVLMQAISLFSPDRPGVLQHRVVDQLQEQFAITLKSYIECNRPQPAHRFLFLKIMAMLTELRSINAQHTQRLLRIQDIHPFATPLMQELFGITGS
Description: The GAL4-dependent pGL4-G5, harboring a pentamer of GAL4 binding sites in front of the E1b promoter was described before.
Transient batch transfection of HepG2 cells was done as described above. […] All transfections included 0.01 µg pMetLuc2control per well for normalization of firefly luciferase reporter activities. After overnight incubation with the transfection mixtures, cells were treated with chemicals in a volume of 100 µl of cell culture medium. […] Firefly luciferase activity was measured in 10 µl of cell lysates, and Metridia luciferase activity was analyzed in 10 µl of medium supernatant, both as described before. Results were normalized by dividing firefly luciferase activity by Metridia luciferase activity measured from the same well. Measurements of samples were repeated several times (n ≥ 3).

ERβ = ERβ (Homo sapiens, UniProt Q92731); assay: Luciferase reporter gene assay ERβ, HepG2
Description: as §2, §3

[4] = MI-883 1 μM, 24 h, one value per donor
[5] = single agent 5 μM: MI-883, CITCO (5 μM) alone

Chain of ERβ (Q92731 264-498 limits assumed, species assumed): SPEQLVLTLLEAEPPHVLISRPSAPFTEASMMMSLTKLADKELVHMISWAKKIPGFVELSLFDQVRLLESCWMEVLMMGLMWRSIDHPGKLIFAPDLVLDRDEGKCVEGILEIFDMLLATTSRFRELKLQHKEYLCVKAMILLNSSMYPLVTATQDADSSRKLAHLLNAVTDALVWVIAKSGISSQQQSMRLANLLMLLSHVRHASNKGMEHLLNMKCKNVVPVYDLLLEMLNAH
Chain of PPARα (Q07869 239-466 limits assumed): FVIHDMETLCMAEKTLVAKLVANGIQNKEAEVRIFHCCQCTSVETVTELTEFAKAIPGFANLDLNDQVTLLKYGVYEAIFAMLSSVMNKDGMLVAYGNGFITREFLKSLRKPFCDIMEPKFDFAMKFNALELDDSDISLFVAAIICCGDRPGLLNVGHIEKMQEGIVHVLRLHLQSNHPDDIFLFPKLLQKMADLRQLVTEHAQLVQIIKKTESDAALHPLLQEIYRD
T1 sequence (Q14994 109-348 isoform Q14994-2 limits assumed): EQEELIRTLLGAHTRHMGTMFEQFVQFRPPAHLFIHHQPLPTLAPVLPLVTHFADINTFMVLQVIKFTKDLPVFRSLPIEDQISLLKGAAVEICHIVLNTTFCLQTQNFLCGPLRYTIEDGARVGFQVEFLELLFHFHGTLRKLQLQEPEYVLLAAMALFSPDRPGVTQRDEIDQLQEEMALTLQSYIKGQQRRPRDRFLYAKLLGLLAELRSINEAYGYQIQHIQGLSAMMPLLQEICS

SMILES: NC(=O)c1cc(Cn2cc(-c3c(-c4ccc(Cl)cc4)nc4cc(F)ccn34)nn2)ccc1Cl [MI-883, 2-chloro-5-((4-(2-(4-chlorophenyl)-7-fluoroimidazo[1,2-a]pyridin-3-yl)-1H-1,2,3-triazol-1-yl)methyl)benzamide]
- CAR-coregulator interaction profile (CAR-LBD): attracts several coactivators, including NCOA1, NCOA2, and NCOA3 proteins
- pER6-luc luciferase gene reporter assay (Fig1 m), replicates ([1]; Rif 1μM + MI-883 30μM): 0.18 and 0.17 and 0.185
- pER6-luc luciferase gene reporter assay (Fig1 m), replicates ([1]; SR12813 1μM + MI-883 30μM): 0.21 and 0.22 and 0.19
- pER6-luc luciferase gene reporter assay (Fig1 m), replicates ([1]; single agent 10μM): 0.17 and 0.18
- pER6-luc luciferase gene reporter assay (Fig1 m), replicates ([1]; single agent 30μM): 0.21 and 0.19
- CYP7A1 mRNA in HepaRG KO CAR cells (HepaRG KO CAR cells): induced
- CYP2B6 mRNA, RT-qPCR, HepaRG KO CAR (Fig. 1f), replicates (HepaRG KO CAR cells; Phenobarbital 500 μM, CITCO 1 μM, MI 883 1 μM, ctrl = 1): 0.55 and 0.6 and 0.76
- CYP2B6 mRNA, RT-qPCR, PHH (Fig. 1g), replicates ([2]; 1 mM): 6.40 and 7.90 and 6.20
- CYP2B6 mRNA, RT-qPCR, PHH (Fig. 1g), replicates ([2]; 5mM): 11.50 and 14.10 and 10.70
- CYP2B6 mRNA in PHH 2 donors (Fig. 3c) ([2]; MI-883 1 μM + CITCO (5 μM)): 18.7857 and 11.1982
- CYP3A4 mRNA in PHH 2 donors (Fig. 3c) ([2]; MI-883 1 μM + CITCO (5 μM)): 1.145 and 0.8997
- CYP2B6 mRNA in PHH 2 donors (Fig. 3c) ([2]; MI-883 1 μM + Rif (10 μM)): 16.0019 and 18.4588
- CYP2B6 mRNA in PHH 2 donors (Fig. 3c) [2, 4]: 9.7833 and 10.0129
- CYP3A4 mRNA in PHH 2 donors (Fig. 3c) [2, 4]: 1.152 and 1.035
- CYP2B6 mRNA in PHH 2 donors (Fig. 3c) ([2]; MI-883 5 μM + CITCO (5 μM)): 4.985 and 8.159
- CYP2B6 mRNA in PHH 2 donors (Fig. 3c) ([2]; MI-883 5 μM + Rif (10 μM)): 9.78 and 14.5843
- CYP2B6 mRNA in PHH 2 donors (Fig. 3c) ([2]; MI-883 10 μM + CITCO (5 μM)): 1.856 and 2.089
- CYP3A4 mRNA in PHH 2 donors (Fig. 3c) ([2]; MI-883 10 μM + CITCO (5 μM)): 0.35 and 0.4582
- CYP2B6 mRNA in PHH 2 donors (Fig. 3c) ([2]; MI-883 10 μM + Rif (10 μM)): 2.674 and 5.134
- CYP3A4 mRNA in PHH 2 donors (Fig. 3c) ([2]; MI-883 10 μM + Rif (10 μM)): 2.14 and 3.421
- CYP2B6 mRNA in PHH 2 donors (Fig. 3c) [2, 5]: 17.2158 and 12.1241
- CYP3A4 mRNA in PHH 2 donors (Fig. 3c) [2, 5]: 0.6604 and 0.7133
- CYP3A4 mRNA in PHH 2 donors (Fig. 3c) ([2]; single agent 10 μM: MI-883, Rif (10 μM) alone): 0.3215 and 0.4561
- NRs assays: PPARa (relative to ctrl, replicates) (PPARα): 0.75 and 0.92 and 1.14
- IC50 (human PXR; HepG2 cells, read-out: IC50, basal PXR activation): 2.03 ± 0.3 µM
- IC50 (human PXR; HepG2 cells, read-out: IC50, rifampicin-induced PXR activation): 3.6 ± 0.4 µM
- IC50 (human PXR; reply to reviewers, read-out: IC50 for PXR antagonistic activity): 2 µM
- insulinemia ([3]; HFD study): no effect
- postprandial glucose concentrations in IPGTT or IPITT ([3]; HFD study): did not significantly decrease
- plasma glucose levels ([3]; both studies): no effect
- PXR/NCOA1 two-hybrid activity, replicates (PXR/NCOA1; MI-883 5 μM): 0.25 and 0.27 and 0.49 and 0.53 and 0.45
- PXR/NCOA1 two-hybrid activity, replicates (PXR/NCOA1; RIF + MI-883 5μM): 3.5 and 5.72 and 7.6 and 8.87 and 7.06
- PXR/NCOA1 two-hybrid activity, replicates (PXR/NCOA1; RIF + MI-883 10μM): 2.55 and 2.34 and 3.32 and 3.46
- PXR/NCOA1 two-hybrid activity, replicates (PXR/NCOA1; single agent: RIF (10 µM), MI-883 10μM, control ~1): 0.21 and 0.23 and 0.57 and 0.43 and 0.38
- NRs assays: ERbeta (relative to ctrl, replicates) (ERβ): 0.84 and 0.86 and 0.88
